One data set relates to Apis mellifera. To be noted: acute; duration: 48 hours; oral; unspecified; mortality.
For a further data set, the system named is Bibionidae. Conditions: chronic/long-term; duration: 28 days; development.
A further data set has as its system Colinus virginianus. Conditions: for LD50: acute, oral.
In another data set the test system is Cyprinus carpio. Conditions: acute; duration: 96 hours; mortality.
A further data set deals with Daphnia magna. Conditions: chronic/long-term; duration: 21 days; reproduction.
The next data set concerns Mus musculus. To be noted: chronic; duration: 18 months; histopathology: neoplastic.
In a further data set the test system is Oryctolagus sp. Conditions: reproduction developmental; body weight.
In another data set the test system is Pimephales promelas. To be noted: chronic/long-term; duration: 28 days; growth.
In another data set the test system is Tagia sp. Conditions: mortality.
The next data set relates to Aphidius rhopalosiphi. As to the kind of experiment: LR50; higher = less toxic. To be noted: acute; duration: 48 hours; mortality.
The test system of another data set is Typhlodromus pyri. Briefly: LR50; higher = less toxic. To be noted: acute; duration: 7 days; mortality.

The text below walks through data of EPA's ToxValDB 9.5 (doi:10.2903/j.efsa.2014.3237).

Values after ≈ are worked out from the molar mass of the structure shown. A value given as a limit tells only on which side of the number the result lay.

The NOAEL is the highest dose or exposure tested at which no adverse effect was seen. Consider `Cc1c(Br)c2ccc(F)cc2n1S(=O)(=O)c1ncn(S(=O)(=O)N(C)C)n1` [Amisulbrom], for which the LD50 with Apis mellifera is over 100 µg/piece; in the data set on Colinus virginianus, over 2000 mg/kg-day; with Colinus virginianus (diet) it was over 1080 mg/kg-day; with Rattus norvegicus (acute, oral), over 5000 mg/kg-day. The NOEC in the data set with Bibionidae was determined as 0.111 mg/L; with Colinus virginianus (reproduction developmental) it was 34.2 mg/kg-day; with Daphnia magna, 0.0197 mg/L; in the data set on Pimephales promelas, 0.037 mg/L; in the data set on Tagia sp. (chronic/long-term, duration: 28 days), 93.7 mg/kg. Further, the LC50 is 0.0229 µg/mL (≈ 0.0491 µM) in the data set with Cyprinus carpio and over 1000 mg/kg in the data set on Tagia sp. (acute, duration: 14 days). Moreover, the no observed adverse effect level (NOAEL) in the data set with Mus musculus amounted to 11.6 mg/kg-day; in the data set on Oryctolagus sp., 30 mg/kg-day; with Rattus norvegicus (chronic, duration: 2 years, histopathology: neoplastic) it was 11.1 mg/kg-day; in the data set on Rattus norvegicus (reproduction developmental, reproduction), 48.5 mg/kg-day. In addition, the LR50 with Aphidius rhopalosiphi and in the data set with Typhlodromus pyri was over 1000 g/ha in each case.
